Measurements taken from PubChem BioAssay AID1963860 (Molecular Pharmacology Branch, DTP, NCI, 2024).
pIC50: −log10 of the molar value.

Tested on: CN0375-F725-PDC KRAS spheroid viability
Assay: Anticancer human tumor CN0375-F725-PDC patient-derived colon carcinoma cell line growth inhibition [KRAS2]
Conditions: spheroids with HUVEC and MSC; for viability, T/C: stronger effect = lower value
Method in brief: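 Combination screen of spheroid viability in tumor-cell co-cultures with endothelial (HUVEC) and mesenchymal stem cell stroma. Each agent was tested in half-log dilutions, topping at clinical Cmax or at 10 microM without a known Cmax.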

[1] = curve of first compound, second compound 0.1 µM
[2] = curve of first compound, second compound 0.316 µM
[3] = curve of first compound, second compound 1 µM
[4] = curve of first compound, second compound 3.16 µM
[5] = curve of first compound, second compound 10 µM
[6] = second compound 0.1 µM, first compound 0.0316 µM
[7] = second compound 0.1 µM, first compound 0.1 µM
[8] = second compound 0.1 µM, first compound 0.316 µM
[9] = second compound 0.1 µM, first compound 1 µM
[10] = second compound 0.1 µM, first compound 3.16 µM
[11] = second compound 0.316 µM, first compound 0.0316 µM
[12] = second compound 0.316 µM, first compound 0.1 µM
[13] = second compound 0.316 µM, first compound 0.316 µM
[14] = second compound 0.316 µM, first compound 1 µM
[15] = second compound 0.316 µM, first compound 3.16 µM
[16] = second compound 1 µM, first compound 0.0316 µM
[17] = second compound 1 µM, first compound 0.1 µM
[18] = second compound 1 µM, first compound 0.316 µM
[19] = second compound 1 µM, first compound 1 µM
[20] = second compound 1 µM, first compound 3.16 µM
[21] = second compound 3.16 µM, first compound 0.0316 µM
[22] = second compound 3.16 µM, first compound 0.1 µM
[23] = second compound 3.16 µM, first compound 0.316 µM
[24] = second compound 3.16 µM, first compound 1 µM
[25] = second compound 3.16 µM, first compound 3.16 µM
[26] = second compound 10 µM, first compound 0.0316 µM
[27] = second compound 10 µM, first compound 0.1 µM
[28] = second compound 10 µM, first compound 0.316 µM
[29] = second compound 10 µM, first compound 1 µM
[30] = second compound 10 µM, first compound 3.16 µM
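Also: spheroids exposed to agents for 7 days.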

Compound `CCNC(=O)CC1N=C(c2ccc(Cl)cc2)c2cc(OC)ccc2-n2c(C)nnc21` (centres undefined) + COc1cc2nc(C)nc(NC(C)c3cc(N)cc(C(F)(F)F)c3)c2cc1OC1CCOC1 has a pIC50 [1] of 5.07, a pIC50 [2] of 5.18 and a pIC50 [3] of 5.14. It also gave a pIC50 [4] of 5.71, a pIC50 [5] of over 7.50 and a viability, T/C [6] of 97.9%. For the same compound, the viability, T/C [7] was 88.2%, the viability, T/C [8] was 77.7% and the viability, T/C [9] was 78.2%. It also gave a viability, T/C [10] of 63.7%, a viability, T/C (second compound 0.1 µM, first compound 10 µM) of 45.8% and a viability, T/C [11] of 94.2%. For the same compound, the viability, T/C [12] was 87.6%, the viability, T/C [13] was 78.1% and the viability, T/C [14] was 71.7%. For the same compound, the viability, T/C [15] was 63.4%, the viability, T/C (second compound 0.316 µM, first compound 10 µM) was 42.5% and the viability, T/C [16] was 87.4%. It also gave a viability, T/C [17] of 84.5%, a viability, T/C [18] of 71.2% and a viability, T/C [19] of 69.7%. It also gave a viability, T/C [20] of 60.6%, a viability, T/C (second compound 1 µM, first compound 10 µM) of 45.4% and a viability, T/C [21] of 79.1%. It also gave a viability, T/C [22] of 79.4%, a viability, T/C [23] of 64.9% and a viability, T/C [24] of 58.6%. For the same compound, the viability, T/C [25] was 44.8%, the viability, T/C (second compound 3.16 µM, first compound 10 µM) was 32.5% and the viability, T/C [26] was 12.7%. The viability, T/C [27] was 8.68%, the viability, T/C [28] was 5% and the viability, T/C [29] was 3.29%. For the same compound, the viability, T/C [30] was 2.26% and the viability, T/C (second compound 10 µM, first compound 10 µM) was 1.29%.
With `CC1COCCN1c1cc(-c2ccnn2C)c2ccnc(-c3ccn[nH]3)c2n1` (centres undefined) + C=CC(=O)N1CCN(c2nc(=O)n(-c3c(C)ccnc3C(C)C)c3nc(-c4c(O)cccc4F)c(F)cc23)C(C)C1 the pIC50 [1] was under 5.50, the pIC50 [2] was under 5.50 and the pIC50 [3] was under 5.50. For the same compound, the pIC50 [4] was under 5.50, the pIC50 [5] was 5.75 and the viability, T/C (second compound 0.1 µM, first compound 0.01 µM) was 107%. The viability, T/C [6] was 99.4%, the viability, T/C [7] was 88.8% and the viability, T/C [8] was 81.6%. The viability, T/C [9] was 65.5%, the viability, T/C [10] was 55.8% and the viability, T/C (second compound 0.316 µM, first compound 0.01 µM) was 104%. The viability, T/C [11] was 95.3%, the viability, T/C [12] was 80% and the viability, T/C [13] was 78.2%. It also gave a viability, T/C [14] of 65.5%, a viability, T/C [15] of 52.6% and a viability, T/C (second compound 1 µM, first compound 0.01 µM) of 100%. It also gave a viability, T/C [16] of 103%, a viability, T/C [17] of 89% and a viability, T/C [18] of 80.5%. For the same compound, the viability, T/C [19] was 65.6%, the viability, T/C [20] was 53.8% and the viability, T/C (second compound 3.16 µM, first compound 0.01 µM) was 101%. It also gave a viability, T/C [21] of 107%, a viability, T/C [22] of 89.3% and a viability, T/C [23] of 76.7%. For the same compound, the viability, T/C [24] was 64.4%, the viability, T/C [25] was 53.5% and the viability, T/C (second compound 10 µM, first compound 0.01 µM) was 102%. For the same compound, the viability, T/C [26] was 103%, the viability, T/C [27] was 84.5% and the viability, T/C [28] was 71.7%. It also gave a viability, T/C [29] of 55.5% and a viability, T/C [30] of 44.6%.
With `CCNC(=O)CC1N=C(c2ccc(Cl)cc2)c2cc(OC)ccc2-n2c(C)nnc21` (centres undefined) the viability, T/C (compound 0.0316 µM) was 100% [middle of 5 runs], the viability, T/C (compound 0.1 µM) was 97.1% [middle of 5 runs] and the viability, T/C (compound 0.316 µM) was 90.4% [middle of 5 runs]. The viability, T/C (compound 1 µM) was 84.2% [middle of 5 runs], the viability, T/C (compound 3.16 µM) was 74.3% [middle of 5 runs] and the viability, T/C (compound 10 µM) was 58.6% [middle of 5 runs]. The pIC50 (curve of compound) was under 5.00.
With `CC(C)n1nc(-c2ccc3oc(N)nc3c2)c2c(N)ncnc21` the viability, T/C (compound 0.000316 µM) was 97.5% [middle of 5 runs], the viability, T/C (compound 0.001 µM) was 93.1% [middle of 5 runs] and the viability, T/C (compound 0.00316 µM) was 79% [middle of 5 runs]. The viability, T/C (compound 0.01 µM) was 70.7% [middle of 5 runs], the viability, T/C (compound 0.0316 µM) was 55.5% [middle of 5 runs] and the viability, T/C (compound 0.1 µM) was 45.2% [middle of 5 runs]. For the same compound, the IC50 (curve of compound) was 64.7 nM [middle of 5 runs].
